How the values were obtained:
Assay in all cases: relative viability (nuclei count vs DMSO), 5 days (fraction); higher = more cells survive
201T = tested on: 201T
Summary of the method: (§1)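 Relative viability divides the nuclei count in treated wells by that in vehicle wells. Lung cancer cell lines were seeded in 1536-well plates, dosed by pin tool the next day, and fixed and stained after 5 days in one step with final 0.05% Triton X-100, 1% formaldehyde and 1 ug/ml Hoechst. Dosing was a single drug or a fixed anchor-drug dose plus five library-drug doses (not always all listed) in √10 steps, and values are medians of duplicate plates imaged at 4×.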

ABC-1 = tested on: ABC-1
Summary of the method: as §1

BEN = tested on: BEN
Summary of the method: as §1

CAL-12T = tested on: CAL-12T
Summary of the method: as §1

COR-L 105 = tested on: COR-L 105
Summary of the method: as §1

EKVX = tested on: EKVX
Summary of the method: as §1

HARA = tested on: HARA
Summary of the method: as §1

HCC-366 = tested on: HCC-366
Summary of the method: as §1

LK-2 = tested on: LK-2
Summary of the method: as §1

LOU-NH91 = tested on: LOU-NH91
Summary of the method: as §1

NCI-H1437 = tested on: NCI-H1437
Summary of the method: as §1

NCI-H1650 = tested on: NCI-H1650
Summary of the method: as §1

NCI-H1666 = tested on: NCI-H1666
Summary of the method: as §1

NCI-H2009 = tested on: NCI-H2009
Summary of the method: as §1

NCI-H2170 = tested on: NCI-H2170
Summary of the method: as §1

NCI-H3122 = tested on: NCI-H3122
Summary of the method: as §1

NCI-H441 = tested on: NCI-H441
Summary of the method: as §1

NCI-H460 = tested on: NCI-H460
Summary of the method: as §1

NCI-H661 = tested on: NCI-H661
Summary of the method: as §1

NCI-H727 = tested on: NCI-H727
Summary of the method: as §1

PC-14 = tested on: PC-14
Summary of the method: as §1

SW 900 = tested on: SW 900
Summary of the method: as §1

O=c1cc(-c2cccc3c2Sc2ccccc2S3)oc(N2CCOCC2)c1 + CC(=O)c1c(C)c2cnc(Nc3ccc(N4CCNCC4)cn3)nc2n(C2CCCC2)c1=O [Palbociclib] (partner 0.5 µM)
relative viability (201T; first compound 0.08 µM): 0.348
relative viability (201T; first compound 0.253 µM): 0.362
relative viability (201T; first compound 0.8 µM): 0.373
relative viability (201T; first compound 2.53 µM): 0.348
relative viability (201T; first compound 8 µM): 0.359
relative viability (ABC-1; first compound 0.08 µM): 1.04
relative viability (ABC-1; first compound 0.253 µM): 0.836
relative viability (ABC-1; first compound 0.8 µM): 0.474
relative viability (ABC-1; first compound 2.53 µM): 0.767
relative viability (ABC-1; first compound 8 µM): 0.674
relative viability (BEN; first compound 0.08 µM): 0.464
relative viability (BEN; first compound 0.253 µM): 0.447
relative viability (BEN; first compound 0.8 µM): 0.477
relative viability (BEN; first compound 2.53 µM): 0.452
relative viability (BEN; first compound 8 µM): 0.499
relative viability (CAL-12T; first compound 0.08 µM): 0.369
relative viability (CAL-12T; first compound 0.253 µM): 0.57
relative viability (CAL-12T; first compound 0.8 µM): 0.498
relative viability (CAL-12T; first compound 2.53 µM): 0.404
relative viability (CAL-12T; first compound 8 µM): 0.292
relative viability (COR-L 105; first compound 0.08 µM): 0.349
relative viability (COR-L 105; first compound 0.253 µM): 0.319
relative viability (COR-L 105; first compound 0.8 µM): 0.385
relative viability (COR-L 105; first compound 2.53 µM): 0.413
relative viability (COR-L 105; first compound 8 µM): 0.416
relative viability (EKVX; first compound 0.08 µM): 0.582
relative viability (EKVX; first compound 0.253 µM): 0.657
relative viability (EKVX; first compound 0.8 µM): 0.345
relative viability (EKVX; first compound 2.53 µM): 0.321
relative viability (EKVX; first compound 8 µM): 0.399
relative viability (HARA; first compound 0.08 µM): 0.253
relative viability (HARA; first compound 0.253 µM): 0.201
relative viability (HARA; first compound 0.8 µM): 0.241
relative viability (HARA; first compound 2.53 µM): 0.209
relative viability (HARA; first compound 8 µM): 0.266
relative viability (HCC-366; first compound 0.08 µM): 0.436
relative viability (HCC-366; first compound 0.253 µM): 0.349
relative viability (HCC-366; first compound 0.8 µM): 0.487
relative viability (HCC-366; first compound 2.53 µM): 0.401
relative viability (HCC-366; first compound 8 µM): 0.51
relative viability (LK-2; first compound 0.08 µM): 0.515
relative viability (LK-2; first compound 0.253 µM): 0.8
relative viability (LK-2; first compound 0.8 µM): 0.637
relative viability (LK-2; first compound 2.53 µM): 0.767
relative viability (LK-2; first compound 8 µM): 0.881
relative viability (LOU-NH91; first compound 0.08 µM): 0.528
relative viability (LOU-NH91; first compound 0.253 µM): 0.518
relative viability (LOU-NH91; first compound 0.8 µM): 0.543
relative viability (LOU-NH91; first compound 2.53 µM): 0.535
relative viability (LOU-NH91; first compound 8 µM): 0.571
relative viability (NCI-H1437; first compound 0.08 µM): 0.302
relative viability (NCI-H1437; first compound 0.253 µM): 0.344
relative viability (NCI-H1437; first compound 0.8 µM): 0.276
relative viability (NCI-H1437; first compound 2.53 µM): 0.25
relative viability (NCI-H1437; first compound 8 µM): 0.285
relative viability (NCI-H1650; first compound 0.08 µM): 0.377
relative viability (NCI-H1650; first compound 0.253 µM): 0.38
relative viability (NCI-H1650; first compound 0.8 µM): 0.284
relative viability (NCI-H1650; first compound 2.53 µM): 0.311
relative viability (NCI-H1650; first compound 8 µM): 0.353
relative viability (NCI-H1666; first compound 0.08 µM): 0.638
relative viability (NCI-H1666; first compound 0.253 µM): 0.673
relative viability (NCI-H1666; first compound 0.8 µM): 0.679
relative viability (NCI-H1666; first compound 2.53 µM): 0.659
relative viability (NCI-H1666; first compound 8 µM): 0.601
relative viability (NCI-H2009; first compound 0.08 µM): 0.189
relative viability (NCI-H2009; first compound 0.253 µM): 0.232
relative viability (NCI-H2009; first compound 0.8 µM): 0.225
relative viability (NCI-H2009; first compound 2.53 µM): 0.199
relative viability (NCI-H2009; first compound 8 µM): 0.213
relative viability (NCI-H2170; first compound 0.08 µM): 0.45
relative viability (NCI-H2170; first compound 0.253 µM): 0.482
relative viability (NCI-H2170; first compound 0.8 µM): 0.414
relative viability (NCI-H2170; first compound 2.53 µM): 0.354
relative viability (NCI-H2170; first compound 8 µM): 0.359
relative viability (NCI-H3122; first compound 0.08 µM): 0.169
relative viability (NCI-H3122; first compound 0.253 µM): 0.2
relative viability (NCI-H3122; first compound 0.8 µM): 0.208
relative viability (NCI-H3122; first compound 2.53 µM): 0.188
relative viability (NCI-H3122; first compound 8 µM): 0.192
relative viability (NCI-H441; first compound 0.08 µM): 0.189
relative viability (NCI-H441; first compound 0.253 µM): 0.187
relative viability (NCI-H441; first compound 0.8 µM): 0.215
relative viability (NCI-H441; first compound 2.53 µM): 0.203
relative viability (NCI-H441; first compound 8 µM): 0.18
relative viability (NCI-H460; first compound 0.08 µM): 0.0971
relative viability (NCI-H460; first compound 0.253 µM): 0.159
relative viability (NCI-H460; first compound 0.8 µM): 0.13
relative viability (NCI-H460; first compound 2.53 µM): 0.154
relative viability (NCI-H460; first compound 8 µM): 0.135
relative viability (NCI-H661; first compound 0.08 µM): 0.416
relative viability (NCI-H661; first compound 0.253 µM): 0.438
relative viability (NCI-H661; first compound 0.8 µM): 0.393
relative viability (NCI-H661; first compound 2.53 µM): 0.394
relative viability (NCI-H661; first compound 8 µM): 0.379
relative viability (NCI-H727; first compound 0.08 µM): 0.613
relative viability (NCI-H727; first compound 0.253 µM): 0.813
relative viability (NCI-H727; first compound 2.53 µM): 0.512
relative viability (NCI-H727; first compound 8 µM): 0.613
relative viability (PC-14; first compound 0.08 µM): 0.552
relative viability (PC-14; first compound 0.253 µM): 0.746
relative viability (PC-14; first compound 0.8 µM): 0.578
relative viability (PC-14; first compound 2.53 µM): 0.46
relative viability (PC-14; first compound 8 µM): 0.489
relative viability (SW 900; first compound 0.253 µM): 0.557
relative viability (SW 900; first compound 0.8 µM): 0.555
relative viability (SW 900; first compound 2.53 µM): 0.492
relative viability (SW 900; first compound 8 µM): 0.469
